{
  "source": "patent US20240216514A1",
  "about": "“NOVEL ANTITUMOR COMPOUNDS AND RELATED METHODS OF MANUFACTURE AND USE” (KLOTHO THERAPEUTICS, INC., priority 2021, published 2024)",
  "key": {"[1]": {"tested_on": "PC-3", "experiment": "Tumor cell growth inhibition, CellTiter-Glo viability, PC-3", "format": "cell-based", "settings": "PC-3, Prostate; 72 hours", "protocol": "(§1) To support the potential of compounds of the invention as antitumor agents, their ability to inhibit tumor cell growth across a range of cancer types was evaluated, compared to cisplatin (See FIGS. 3A-3C and FIGS. 4A-4C). Cancer cells were seeded at optimized density on 384-well plates in appropriate media for 24 hours in triplicate for each test article. Titrated compounds or cisplatin were added to cultures for 72 hours with 3-fold dilutions totaling 9 concentrations starting from 30 uM for compounds or 50 uM for cisplatin (see FIGS. 3A-3C). Cell viability was then determined by CellTiter-Glo® Luminescent Cell Viability Assay from Promega, Madison Wisconsin. A dose response curve (see FIGS. 4A-4C) was fitted from luminance activity and the IC50 for each test article was calculated using a four-parameter variable slope in GraphPad Prism version 8.0.0 for Windows, GraphPad Software, San Diego, California USA, www.graphpad.com. Conjugates were more cytotoxic to cancer cells compared to cisplatin alone, some were particularly noteworthy in colon cancer (HCT-15), prostate cancer (PC-3), and breast cancer (MCF-7) cells compared to cisplatin (see, also, Table 1, below)."}, "[2]": {"tested_on": "LNCap", "experiment": "Tumor cell growth inhibition, CellTiter-Glo viability, LNCap", "format": "cell-based", "settings": "Prostate, 72 hours", "protocol": "as §1"}, "[3]": {"tested_on": "Hela", "experiment": "Tumor cell growth inhibition, CellTiter-Glo viability, Hela", "format": "cell-based", "settings": "Cervical, 72 hours", "protocol": "as §1"}, "[4]": {"tested_on": "H929", "experiment": "Tumor cell growth inhibition, CellTiter-Glo viability, H929", "format": "cell-based", "settings": "H929, Bone Marrow; 72 hours", "protocol": "as §1"}, "[5]": {"tested_on": "HCT-15", "experiment": "Tumor cell growth inhibition, CellTiter-Glo viability, HCT-15", "format": "cell-based", "settings": "HCT-15, Colon; 72 hours", "protocol": "as §1"}, "[6]": {"tested_on": "MDA-MB-231", "experiment": "Tumor cell growth inhibition, CellTiter-Glo viability, MDA-MB-231", "format": "cell-based", "settings": "MDA-MB-231, Breast; 72 hours", "protocol": "as §1"}, "[7]": {"tested_on": "MCF-7", "experiment": "Tumor cell growth inhibition, CellTiter-Glo viability, MCF-7", "format": "cell-based", "settings": "MCF-7, Breast; 72 hours", "protocol": "as §1"}, "[8]": {"tested_on": "Huh-7", "experiment": "Tumor cell growth inhibition, CellTiter-Glo viability, Huh-7", "format": "cell-based", "settings": "Huh-7, Liver; 72 hours", "protocol": "as §1"}, "[9]": {"tested_on": "HepG2-PM4", "experiment": "Tumor cell growth inhibition, CellTiter-Glo viability, HepG2-PM4", "format": "cell-based", "settings": "HepG2-PM4, Liver; 72 hours", "protocol": "as §1"}, "[10]": {"experiment": "Chemoprotection against cisplatin-induced myelotoxicity", "settings": "preliminary results", "from_the_text": "Accordingly, by combining PTBA or its analogs with cisplatin through chemical conjugation, not only will the conjugate drug have the potential to act as a synergistic anti-cancer drug combination in its own right, but PTBA and its analogs will also provide for chemoprotection against nephrotoxicity during cancer therapy. […] By reducing adverse side effects, this chemoprotective characteristic of PTBA and its analogs, co-administered as a chemical conjugate with cisplatin, has the potential to increase drug tolerability, to permit uninterrupted treatment schedules, and to eliminate the need to reduce drug doses."}, "[11]": {"tested_on": "nephrotoxin-induced and ischemia/reperfusion-induced kidney injury", "settings": "rodents; cited from earlier work"}, "[12]": {"target": "HDAC8 (Homo sapiens, UniProt Q9BY41)", "sequence (Q9BY41 whole entry)": "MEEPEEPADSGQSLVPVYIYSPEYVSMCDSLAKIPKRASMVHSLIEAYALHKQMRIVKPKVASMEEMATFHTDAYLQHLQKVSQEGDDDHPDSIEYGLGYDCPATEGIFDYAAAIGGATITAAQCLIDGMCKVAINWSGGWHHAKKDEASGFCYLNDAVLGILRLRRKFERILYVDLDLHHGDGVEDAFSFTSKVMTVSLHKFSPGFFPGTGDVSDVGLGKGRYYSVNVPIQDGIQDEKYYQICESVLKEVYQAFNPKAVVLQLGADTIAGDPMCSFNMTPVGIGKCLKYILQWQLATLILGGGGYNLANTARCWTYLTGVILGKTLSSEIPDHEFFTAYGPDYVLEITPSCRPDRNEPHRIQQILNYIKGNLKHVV", "settings": "cited from earlier work"}},
  "data": [
    {"molecule": "N.N.[Cl][Pt][Cl]", "note": "[Cisplatin, cisdiamminedichloroplatinum [II]]", "values": [
      {"measurement": "IC50", "setting": "[1]", "result": 22, "unit": "µM"},
      {"measurement": "IC50", "setting": "[2]", "result": 10.9, "unit": "µM"},
      {"measurement": "IC50", "setting": "[3]", "result": 12.3, "unit": "µM"},
      {"measurement": "IC50", "setting": "[4]", "result": 2.35, "unit": "µM"},
      {"measurement": "IC50", "setting": "[5]", "result": 24.3, "unit": "µM"},
      {"measurement": "IC50", "setting": "[6]", "result": 2.85, "unit": "µM"},
      {"measurement": "IC50", "setting": "[7]", "result": 2.25, "unit": "µM"},
      {"measurement": "IC50", "setting": "[8]", "result": 6.47, "unit": "µM"},
      {"measurement": "IC50", "setting": "[9]", "result": 14, "unit": "µM"}
    ]},
    {"molecule": "O=C(O)CCCSc1ccccc1", "note": "[PTBA, 4-(phenylthio)butanoic acid]", "values": [
      {"measurement": "Chemoprotective effect against cisplatin-induced myelotoxicity", "setting": "[10]", "result": "chemoprotective effect"},
      {"measurement": "Recovery of kidney function after AKI", "setting": "[11]", "result": "significantly accelerate recovery of kidney function"}
    ]},
    {"molecule": "O=C(CCCCCCC(=O)Nc1ccccc1)NO", "note": "[Vorinostat, suberoylanilide hydroxamic acid]", "values": [
      {"measurement": "Inhibition of HDAC8 (potency range)", "setting": "[12]", "result": "micromolar range"}
    ]},
    {"molecule": "Trichostatin A", "values": [
      {"measurement": "Concentration that completely inhibits HDAC8 activity", "setting": "[12]", "result": 5, "unit": "µM"}
    ]}
  ]
}
